Source: patent US12509431B2, “1,4-dihydroquinazolinone compounds and uses thereof” (Edgewise Therapeutics, Inc., priority 2022, dated 2025)

Columns and labels:
Format in all cases: biochemical
[1] = tested on: Porcine Atria myofibrils; experiment: Myofibril ATPase assay (PK/LDH NADH-coupled), atria myofibrils
Procedure, shortened: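 Porcine atrial myofibril ATPase followed via PK/LDH-coupled NADH depletion, absorbance at 340 nm read every 1.5-2 min over 75 min. Slopes (mAU/min) normalized to vehicle as 100% and fit to a 4-parameter logistic; EC25% derived, plus EC50% for inhibitors.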

[2] = biological target: T1, Porcine Ventricle myofibrils (left ventricle of Yucatan minipigs) (Sus scrofa, UniProt P79293); experiment: Myofibril ATPase assay (PK/LDH NADH-coupled), ventricle myofibrils
T1 construct: Myofibrils from porcine cardiac muscle was isolated from the left ventricle of Yucatan minipigs; tissue Exemplar Genetics; host or cells: left ventricle of Yucatan minipigs
Procedure, shortened: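 Yucatan minipig left-ventricle myofibrils; ATPase measured by PK/LDH-coupled NADH loss at 340 nm, read every 1.5-2 min for 75 min. Slopes normalized to vehicle (100%) and fit to 4-parameter logistic model; EC25 and, for inhibitors, EC50 calculated.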

[3] = tested on: Rabbit Skeletal myofibrils (rabbit psoas muscle); experiment: Myofibril ATPase assay (PK/LDH NADH-coupled), skeletal myofibrils
Procedure, shortened: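 Rabbit psoas myofibrils in pCa (PIPES/CaCl2/EGTA, pH 7.0) buffer; ADP coupled via PK/LDH to NADH loss, read at 340 nm every 1.5–2 min for 75 min. Slopes normalized to vehicle (100%) and fit to 4-parameter logistic for EC25, plus EC50 for inhibitors.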

T1 sequence (P79293 whole entry): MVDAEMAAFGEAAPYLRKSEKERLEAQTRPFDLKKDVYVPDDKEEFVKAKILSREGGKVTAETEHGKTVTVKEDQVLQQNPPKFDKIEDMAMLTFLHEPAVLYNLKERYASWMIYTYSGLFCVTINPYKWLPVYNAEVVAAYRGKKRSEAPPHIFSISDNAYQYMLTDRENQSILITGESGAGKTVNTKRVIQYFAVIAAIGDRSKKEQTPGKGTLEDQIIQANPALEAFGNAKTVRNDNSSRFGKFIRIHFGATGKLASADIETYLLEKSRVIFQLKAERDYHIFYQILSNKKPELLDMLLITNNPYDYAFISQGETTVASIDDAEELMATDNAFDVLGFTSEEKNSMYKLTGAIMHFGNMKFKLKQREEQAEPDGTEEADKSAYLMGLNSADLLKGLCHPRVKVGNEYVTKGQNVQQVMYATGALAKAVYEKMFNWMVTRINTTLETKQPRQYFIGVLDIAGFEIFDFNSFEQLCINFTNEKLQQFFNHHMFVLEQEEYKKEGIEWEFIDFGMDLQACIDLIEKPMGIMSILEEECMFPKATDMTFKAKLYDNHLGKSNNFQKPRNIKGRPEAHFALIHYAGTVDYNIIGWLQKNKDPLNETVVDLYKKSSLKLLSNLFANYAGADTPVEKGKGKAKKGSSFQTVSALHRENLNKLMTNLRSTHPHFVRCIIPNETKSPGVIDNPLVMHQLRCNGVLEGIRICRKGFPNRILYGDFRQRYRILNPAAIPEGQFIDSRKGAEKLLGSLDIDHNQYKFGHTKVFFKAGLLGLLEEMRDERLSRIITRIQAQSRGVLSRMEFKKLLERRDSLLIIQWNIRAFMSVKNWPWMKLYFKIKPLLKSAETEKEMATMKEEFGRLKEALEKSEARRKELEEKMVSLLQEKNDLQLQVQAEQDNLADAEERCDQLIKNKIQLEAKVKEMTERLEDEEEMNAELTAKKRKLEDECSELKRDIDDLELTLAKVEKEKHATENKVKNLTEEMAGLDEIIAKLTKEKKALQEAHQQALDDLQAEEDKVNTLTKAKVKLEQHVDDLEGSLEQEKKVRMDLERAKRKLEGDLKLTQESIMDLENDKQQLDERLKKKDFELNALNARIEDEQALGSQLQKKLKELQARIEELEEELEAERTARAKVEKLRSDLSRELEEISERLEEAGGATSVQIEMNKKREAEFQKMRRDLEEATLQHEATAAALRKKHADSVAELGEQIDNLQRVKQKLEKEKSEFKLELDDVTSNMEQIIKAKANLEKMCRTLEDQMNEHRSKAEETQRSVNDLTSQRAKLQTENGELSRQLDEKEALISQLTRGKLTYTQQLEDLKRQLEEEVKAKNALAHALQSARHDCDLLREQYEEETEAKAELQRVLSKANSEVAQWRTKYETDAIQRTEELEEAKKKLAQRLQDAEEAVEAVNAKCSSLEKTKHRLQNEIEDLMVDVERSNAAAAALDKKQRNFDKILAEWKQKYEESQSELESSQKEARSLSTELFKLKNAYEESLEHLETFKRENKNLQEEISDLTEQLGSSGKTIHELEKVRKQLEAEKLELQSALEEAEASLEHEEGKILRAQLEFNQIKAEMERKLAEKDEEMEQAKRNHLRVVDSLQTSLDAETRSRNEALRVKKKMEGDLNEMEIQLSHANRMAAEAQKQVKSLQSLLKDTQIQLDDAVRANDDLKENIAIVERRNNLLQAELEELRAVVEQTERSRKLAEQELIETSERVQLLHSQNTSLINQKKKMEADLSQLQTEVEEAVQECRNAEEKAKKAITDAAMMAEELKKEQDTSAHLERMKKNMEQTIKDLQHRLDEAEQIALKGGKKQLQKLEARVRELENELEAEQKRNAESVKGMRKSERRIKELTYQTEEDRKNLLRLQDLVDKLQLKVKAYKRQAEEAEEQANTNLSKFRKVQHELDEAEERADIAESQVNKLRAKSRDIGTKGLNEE

Structure (SMILES)	Porcine Atria IC25 ([1]; Table 8) [µM]	Porcine Ventricle IC25 ([2]; Table 8) [µM]	Rabbit Psoas IC25 ([3]; Table 8) [µM]	Porcine Atria IC25 ([1]; Table 7) [µM]	Porcine Ventricle IC25 ([2]; Table 7) [µM]	Rabbit Psoas IC25 ([3]; Table 7) [µM]
N#Cc1cc(F)c2c(c1)OC[C@H]2NC(=O)CN1C(=O)Nc2ccc(F)c(F)c2C12CC2 [Compound B319]	0.07	0.10	5.96	–	–	–
N#Cc1cc(F)c2c(c1)OC[C@@H]2NC(=O)CN1C(=O)Nc2ccc(F)c(F)c2C12CC2 [Compound B320]	0.23	0.24	0.33	–	–	–
N#Cc1cnc2c(c1)OC[C@H]2NC(=O)CN1C(=O)Nc2ccc(F)c(F)c2C12CC2 [Compound B321]	0.17	0.97	0.23	–	–	–
N#Cc1cnc2c(c1)OC[C@@H]2NC(=O)CN1C(=O)Nc2ccc(F)c(F)c2C12CC2 [Compound B322]	0.07	0.06	0.03	–	–	–
C[C@@H](NC(=O)CN1C(=O)Nc2ccc(F)c(F)c2C12CC2)c1ncc(C#N)cc1F [Compound B323]	0.10	0.32	0.63	–	–	–
C[C@H](NC(=O)CN1C(=O)Nc2ccc(F)c(F)c2C12CC2)c1ncc(C#N)cc1F [Compound B324]	0.04	0.05	0.03	–	–	–
Cc1nc(C#N)cnc1[C@@H](C)NC(=O)CN1C(=O)Nc2ccc(F)c(F)c2C12CC2 [Compound B325]	1.04	3.21	2.34	–	–	–
Cc1nc(C#N)cnc1[C@H](C)NC(=O)CN1C(=O)Nc2ccc(F)c(F)c2C12CC2 [Compound B326]	0.16	0.06	0.02	–	–	–
Cc1cc(C#N)nnc1[C@@H](C)NC(=O)CN1C(=O)Nc2ccc(F)cc2C12CC2 [Compound B328]	1.53	100.00	100.00	–	–	–
Cc1cc(C#N)nnc1[C@H](C)NC(=O)CN1C(=O)Nc2ccc(F)cc2C12CC2 [Compound B329]	0.20	0.42	0.13	–	–	–
Cc1nc(C#N)cnc1[C@@H](C)NC(=O)CN1C(=O)Nc2ccc(F)cc2C12CC2 [Compound B330]	0.08	0.19	0.05	–	–	–
Cc1nc(C#N)cnc1[C@H](C)NC(=O)CN1C(=O)Nc2ccc(F)cc2C12CC2 [Compound B331]	0.37	66.75	100.00	–	–	–
Cc1nc(C#N)ncc1[C@@H](C)NC(=O)CN1C(=O)Nc2ccc(F)cc2C12CC2 [Compound B332]	0.06	0.10	0.06	–	–	–
Cc1nc(C#N)ncc1[C@H](C)NC(=O)CN1C(=O)Nc2ccc(F)cc2C12CC2 [Compound B333]	100.00	100.00	100.00	–	–	–
C[C@@H](NC(=O)CN1C(=O)Nc2ccc(F)cc2C12CC2)c1ccc(C#N)nn1 [Compound B334]	0.58	1.56	1.02	–	–	–
C[C@H](NC(=O)CN1C(=O)Nc2ccc(F)cc2C12CC2)c1ccc(C#N)nn1 [Compound B335]	9.42	100.00	100.00	–	–	–
C[C@@H](NC(=O)CN1C(=O)Nc2ccc(F)cc2C12CC2)c1cnc(C#N)cn1 [Compound B336]	0.10	0.27	0.17	–	–	–
C[C@H](NC(=O)CN1C(=O)Nc2ccc(F)cc2C12CC2)c1cnc(C#N)cn1 [Compound B337]	1.01	7.01	100.00	–	–	–
Cc1nc([C@@H](C)NC(=O)CN2Cc3c(ccc(F)c3F)NC2=O)cnc1C#N [Compound B338]	0.08	1.67	17.15	–	–	–
Cc1nc(C(C)NC(=O)CN2Cc3c(ccc(F)c3F)NC2=O)no1 (stereo not drawn) [Compound B340]	3.80	100.00	100.00	–	–	–
C[C@@H](NC(=O)CN1Cc2c(ccc(F)c2F)NC1=O)c1ncnc(C#N)c1F [Compound B341]	0.73	0.35	1.68	–	–	–
C[C@H](NC(=O)CN1Cc2c(ccc(F)c2F)NC1=O)c1ncnc(C#N)c1F [Compound B342]	0.93	4.85	2.45	–	–	–

Structure (SMILES)	Porcine Atria IC25 ([1]; Table 8) [µM]	Porcine Ventricle IC25 ([2]; Table 8) [µM]	Rabbit Psoas IC25 ([3]; Table 8) [µM]	Porcine Atria IC25 ([1]; Table 7) [µM]	Porcine Ventricle IC25 ([2]; Table 7) [µM]	Rabbit Psoas IC25 ([3]; Table 7) [µM]
Cc1ncnc([C@@H](C)NC(=O)CN2Cc3c(ccc(F)c3F)NC2=O)c1F [Compound B343]	4.12	100.00	100.00	–	–	–
Cc1ncnc([C@H](C)NC(=O)CN2Cc3c(ccc(F)c3F)NC2=O)c1F [Compound B344]	1.29	8.84	2.78	–	–	–
Cc1nnc(C(C)NC(=O)CN2Cc3c(ccc(F)c3F)NC2=O)o1 (stereo not drawn) [Compound B345]	57.06	100.00	100.00	–	–	–
Cc1ncc(F)c([C@@H](C)NC(=O)CN2Cc3c(ccc(F)c3F)NC2=O)n1 [Compound B346]	0.22	1.63	59.27	–	–	–
Cc1ncc(F)c([C@H](C)NC(=O)CN2Cc3c(ccc(F)c3F)NC2=O)n1 [Compound B347]	100.00	100.00	100.00	–	–	–
Cc1ncc(C#N)nc1[C@@H](C)NC(=O)CN1Cc2c(ccc(F)c2F)NC1=O [Compound B348]	10.17	6.79	9.36	–	–	–
Cc1ncc(C#N)nc1[C@H](C)NC(=O)CN1Cc2c(ccc(F)c2F)NC1=O [Compound B349]	0.22	0.83	5.32	–	–	–
O=C(CN1Cc2c(ccc(F)c2F)NC1=O)N[C@@H]1CCc2cc(F)cnc21 [Compound B350]	0.30	0.50	0.62	–	–	–
Cc1nc([C@H](C)NC(=O)CN2Cc3c(ccc(F)c3F)NC2=O)ncc1C#N [Compound B353]	1.99	2.24	2.49	–	–	–
Cc1nc(C#N)cnc1[C@@H](CO)NC(=O)CN1Cc2c(ccc(F)c2F)NC1=O [Compound B354]	0.21	3.83	68.36	–	–	–
Cc1nc(C#N)cnc1[C@H](CO)NC(=O)CN1Cc2c(ccc(F)c2F)NC1=O [Compound B355]	0.05	0.14	0.07	–	–	–
C[C@H](NC(=O)CN1Cc2cc(F)c(F)cc2NC1=O)c1ncc(C#N)cc1F [Compound B358]	0.10	0.33	0.13	–	–	–
Cc1nsc([C@@H](C)NC(=O)CN2Cc3c(ccc(F)c3F)NC2=O)n1 [Compound B359]	4.96	100.00	13.87	–	–	–
C[C@@H](NC(=O)CN1Cc2c(ccc(F)c2F)NC1=O)c1cc2c(cn1)N(C)CCO2 [Compound B360]	44.86	9.49	100.00	–	–	–
C[C@H](NC(=O)CN1Cc2c(ccc(F)c2F)NC1=O)c1cc2c(cn1)N(C)CCO2 [Compound B361]	100.00	100.00	100.00	–	–	–
O=C(CN1Cc2c(ccc(F)c2F)NC1=O)N[C@@H]1COCc2cc(F)cnc21 [Compound B362]	100.00	1.04	0.52	–	–	–
O=C(CN1Cc2c(ccc(F)c2F)NC1=O)N[C@H]1COCc2cc(F)cnc21 [Compound B363]	100.00	100.00	100.00	–	–	–
C[C@@H](NC(=O)CN1Cc2c(ccc(F)c2F)NC1=O)c1cc2c(cn1)OCCN2 [Compound B364]	20.41	100.00	100.00	–	–	–
C[C@H](NC(=O)CN1Cc2c(ccc(F)c2F)NC1=O)c1cc2c(cn1)OCCN2 [Compound B365]	100.00	100.00	100.00	–	–	–
N#Cc1cnc2c(c1)CC[C@H]2NC(=O)CN1C(=O)Nc2cccnc2C12CC2 [Compound N1]	–	–	–	70.94	100	100
N#Cc1cnc2c(c1)CC[C@@H]2NC(=O)CN1C(=O)Nc2cccnc2C12CC2 [Compound N2]	–	–	–	17.14	34.26	4.055
C[C@@H](NC(=O)CN1C(=O)Nc2ccc(C#N)nc2C12CC2)c1ncc(C#N)cc1F [Compound N3]	–	–	–	2.59	100	18.85
